Laboratory results from paper PMC8523698, “Preclinical characterization of an intravenous coronavirus 3CL protease inhibitor for the potential treatment of COVID19” (Nature Communications, 2021).
Values after ≈ are worked out from the molar mass of the structure shown. Values joined by “and” are separate entries in the source; they are usually repeats but may differ in a detail not shown here. Equal values may be shown once. Read-outs that look alike come from different tables or passages of the source.

What was measured:
CYP3A4/5 = assay: in vitro; settings: human, microsomes, pH 7.4, Percent of Control Activity, CYP 3A4/5 (mdz)
CYP2C9 = CYP2C9 (Homo sapiens, UniProt P11712); assay: Reversible CYP inhibition in human liver microsomes; settings: for activity at 0.01 µM / activity at 0.158 µM / activity at 0.398 µM / activity at 1 µM / activity at 15.8 µM / activity at 39.8 µM / activity at 100 µM: human, microsomes, pH 7.4, Percent of Control Activity
CYP2C9, sequence (P11712 whole entry): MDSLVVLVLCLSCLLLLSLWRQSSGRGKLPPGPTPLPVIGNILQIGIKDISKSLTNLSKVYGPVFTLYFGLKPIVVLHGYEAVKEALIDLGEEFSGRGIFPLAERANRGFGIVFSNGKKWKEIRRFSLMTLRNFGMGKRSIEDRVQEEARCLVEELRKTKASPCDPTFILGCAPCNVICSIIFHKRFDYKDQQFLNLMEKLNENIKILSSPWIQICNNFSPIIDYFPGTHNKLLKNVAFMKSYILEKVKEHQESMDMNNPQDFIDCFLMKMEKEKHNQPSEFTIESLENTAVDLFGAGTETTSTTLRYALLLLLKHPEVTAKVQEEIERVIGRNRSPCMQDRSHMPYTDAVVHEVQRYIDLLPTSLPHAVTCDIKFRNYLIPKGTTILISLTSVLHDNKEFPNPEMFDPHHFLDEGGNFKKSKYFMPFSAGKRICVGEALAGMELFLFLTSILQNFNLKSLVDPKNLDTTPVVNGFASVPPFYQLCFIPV

[1] = Monkey pharmacokinetic study; settings: for Vd: Vdss
CYP2C8 = molecular target: T1, CYP2C8 (Homo sapiens, UniProt P10632); assay: Reversible CYP inhibition in human liver microsomes; settings: for activity at 0.01 µM / activity at 0.158 µM / activity at 0.398 µM / activity at 1 µM / activity at 15.8 µM / activity at 39.8 µM / activity at 100 µM: human, microsomes, pH 7.4, Percent of Control Activity
T1 sequence (P10632 1-490): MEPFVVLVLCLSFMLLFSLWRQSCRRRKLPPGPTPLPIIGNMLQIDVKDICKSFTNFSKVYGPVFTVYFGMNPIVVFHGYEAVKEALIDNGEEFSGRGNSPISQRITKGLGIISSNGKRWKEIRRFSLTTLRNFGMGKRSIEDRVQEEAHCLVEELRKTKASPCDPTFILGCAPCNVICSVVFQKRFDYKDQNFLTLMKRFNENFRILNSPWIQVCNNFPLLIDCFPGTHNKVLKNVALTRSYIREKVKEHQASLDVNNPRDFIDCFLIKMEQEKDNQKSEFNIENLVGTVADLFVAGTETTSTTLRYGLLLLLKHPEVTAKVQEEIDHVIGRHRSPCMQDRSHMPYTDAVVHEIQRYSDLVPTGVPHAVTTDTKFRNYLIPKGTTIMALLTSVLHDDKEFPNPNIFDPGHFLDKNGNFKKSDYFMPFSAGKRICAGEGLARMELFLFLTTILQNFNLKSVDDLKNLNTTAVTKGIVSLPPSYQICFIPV

[2] = monkey, PF-07304814 prodrug dosed […] intravenous, individual monkeys, […]

COc1cccc2[nH]c(C(=O)N[C@@H](CC(C)C)C(=O)N[C@@H](C[C@@H]3CCNC3=O)C(=O)COP(=O)(O)O)cc12 [PF-07304814]
solubility at 48 h (Solubility measurement; deionized water and pH buffers): > 200 mg/mL
solubility at 48 h (Solubility measurement; deionized water and pH buffers (aqueous)): 200 mg/mL (≈ 362 mM)
activity at 0.01 µM (CYP3A4/5; 30-Minute Preincubation): 99.4%
activity at 0.01 µM (CYP3A4/5; Zero-Minute Preincubation): 102%
activity at 0.158 µM (CYP3A4/5; 30-Minute Preincubation): 102%
activity at 0.158 µM (CYP3A4/5; Zero-Minute Preincubation): 99.1%
activity at 0.398 µM (CYP3A4/5; 30-Minute Preincubation): 101%
activity at 0.398 µM (CYP3A4/5; Zero-Minute Preincubation): 99.3%
activity at 1 µM (CYP3A4/5; 30-Minute Preincubation): 99.2%
activity at 1 µM (CYP3A4/5; Zero-Minute Preincubation): 100%
activity at 15.8 µM (CYP3A4/5; 30-Minute Preincubation): 97.5%
activity at 15.8 µM (CYP3A4/5; Zero-Minute Preincubation): 102%
activity at 39.8 µM (CYP3A4/5; 30-Minute Preincubation): 97%
activity at 39.8 µM (CYP3A4/5; Zero-Minute Preincubation): 100%
activity at 100 µM (CYP3A4/5; 30-Minute Preincubation): 99.2%
activity at 100 µM (CYP3A4/5; Zero-Minute Preincubation): 101%
IC50 (CYP2C9): > 100 µM
Percent of Control Activity (CYP2C9; CYP 2C9, 0.01 µM, 30-Minute Preincubation, 0.01 µM): 99.6% and 105.4%
Percent of Control Activity (CYP2C9; CYP 2C9, 0.01 µM, Zero-Minute Preincubation, 0.01 µM): 102.7% and 88.8%
Percent of Control Activity (CYP2C9; CYP 2C9, 0.158 µM, 30-Minute Preincubation, 0.158 µM): 97.3% and 103.8%
Percent of Control Activity (CYP2C9; CYP 2C9, 0.158 µM, Zero-Minute Preincubation, 0.158 µM): 103.7% and 96.2%
Percent of Control Activity (CYP2C9; CYP 2C9, 0.398 µM, 30-Minute Preincubation, 0.398 µM): 96.2%
Percent of Control Activity (CYP2C9; CYP 2C9, 0.398 µM, Zero-Minute Preincubation, 0.398 µM): 103.2% and 91.4%
Percent of Control Activity (CYP2C9; CYP 2C9, 1 µM, 30-Minute Preincubation, 1 µM): 98.0% and 100.0%
Percent of Control Activity (CYP2C9; CYP 2C9, 1 µM, Zero-Minute Preincubation, 1 µM): 88.9%
Percent of Control Activity (CYP2C9; CYP 2C9, 15.8 µM, 30-Minute Preincubation, 15.8 µM): 97.7% and 102.2%
Percent of Control Activity (CYP2C9; CYP 2C9, 15.8 µM, Zero-Minute Preincubation, 15.8 µM): 104.1% and 92.6%
Percent of Control Activity (CYP2C9; CYP 2C9, 39.8 µM, 30-Minute Preincubation, 39.8 µM): 98.6% and 102.8%
Percent of Control Activity (CYP2C9; CYP 2C9, 39.8 µM, Zero-Minute Preincubation, 39.8 µM): 101.8% and 92.4%
Percent of Control Activity (CYP2C9; CYP 2C9, 100 µM, 30-Minute Preincubation, 100 µM): 97.1% and 95.4%
Percent of Control Activity (CYP2C9; CYP 2C9, 100 µM, Zero-Minute Preincubation, 100 µM): 91.7%
IC50 (CYP2C9; Diclofenac 4′-hydroxylation, T30): > 100 µM
activity at 0.01 µM (CYP2C9; CYP 2C9, 0.01 µM, 30-Minute Preincubation): 100%
activity at 0.01 µM (CYP2C9; CYP 2C9, 0.01 µM, Zero-Minute Preincubation): 98.2%
activity at 0.158 µM (CYP2C9; CYP 2C9, 0.158 µM, 30-Minute Preincubation): 98.3%
activity at 0.158 µM (CYP2C9; CYP 2C9, 0.158 µM, Zero-Minute Preincubation): 103%
activity at 0.398 µM (CYP2C9; CYP 2C9, 0.398 µM, 30-Minute Preincubation): 106%
activity at 0.398 µM (CYP2C9; CYP 2C9, 0.398 µM, Zero-Minute Preincubation): 102%
activity at 1 µM (CYP2C9; CYP 2C9, 1 µM, 30-Minute Preincubation): 100%
activity at 1 µM (CYP2C9; CYP 2C9, 1 µM, Zero-Minute Preincubation): 100%
activity at 15.8 µM (CYP2C9; CYP 2C9, 15.8 µM, 30-Minute Preincubation): 98.8%
activity at 15.8 µM (CYP2C9; CYP 2C9, 15.8 µM, Zero-Minute Preincubation): 106%
activity at 39.8 µM (CYP2C9; CYP 2C9, 39.8 µM, 30-Minute Preincubation): 101%
activity at 39.8 µM (CYP2C9; CYP 2C9, 39.8 µM, Zero-Minute Preincubation): 105%
activity at 100 µM (CYP2C9; CYP 2C9, 100 µM, 30-Minute Preincubation): 96.5%
activity at 100 µM (CYP2C9; CYP 2C9, 100 µM, Zero-Minute Preincubation): 101%
clearance ([1]; male, cynomolgus monkey, plasma, iv, Cl, monkey IV (n=2, range), PF-07304814 […], PF-00835231 1.0mg/kg): 191 mL/min/kg
half-life ([1]; male, cynomolgus monkey, plasma, iv, Terminal T1/2, monkey IV (n=2, range), PF-07304814 […], PF-00835231 1.0mg/kg): 2.6 h
Vd ([1]; male, cynomolgus monkey, plasma, iv, monkey IV (n=2, range), PF-07304814 […], PF-00835231 1.0mg/kg): 1.8 L/kg
clearance ([1]; male, cynomolgus monkey, plasma, iv, […], Clearance, Mean Data, monkey, PF-07304814 prodrug dosed […] intravenous, mean): 191 mL/min/kg
clearance ([1]; male, cynomolgus monkey, plasma, iv, […], Clearance, monkey, PF-07304814 prodrug dosed […] intravenous, individual monkeys): 252 mL/min/kg
half-life ([1]; male, cynomolgus monkey, plasma, iv, […], Half life, Mean Data, monkey, PF-07304814 prodrug dosed […] intravenous, mean): 2.6 h
half-life ([1]; male, cynomolgus monkey, plasma, iv, […], Half life, monkey, PF-07304814 prodrug dosed […] intravenous, individual monkeys): 2.2 h
Vd ([1]; male, cynomolgus monkey, plasma, iv, […], Mean Data, monkey, PF-07304814 prodrug dosed […] intravenous, mean): 1.78 L/kg
%unchanged in urine ([1]; monkey IV, PF-07304814 […], PF-00835231 1.0mg/kg): < 0.1%
Total Concn, Mean Data ([1]; monkey plasma, PF-07304814 prodrug dosed […] intravenous, time 7 h, mean, BLQ=0.1ng/mL): BLQ
Urine Concn ([1]; monkey urine 0-7h, PF-07304814 prodrug dosed […] intravenous, individual monkeys, BLQ=1ng/mL for urine): BLQ
Half life [1, 2]: 3.0 h
clearance [1, 2]: 129 mL/min/kg
IC50 (CYP2C8): > 100 µM
IC50 (CYP2C8; Amodiaquine N-dealkylation, T30): > 100 µM
Percent of Control Activity (CYP2C8; CYP 2C8, 0.01 µM, 30-Minute Preincubation, 0.01 µM): 100.2%
Percent of Control Activity (CYP2C8; CYP 2C8, 0.01 µM, Zero-Minute Preincubation, 0.01 µM): 96.2% and 97.6%
Percent of Control Activity (CYP2C8; CYP 2C8, 0.158 µM, 30-Minute Preincubation, 0.158 µM): 96.6% and 95.8%
Percent of Control Activity (CYP2C8; CYP 2C8, 0.158 µM, Zero-Minute Preincubation, 0.158 µM): 91.2% and 95.2%
Percent of Control Activity (CYP2C8; CYP 2C8, 0.398 µM, 30-Minute Preincubation, 0.398 µM): 95.5% and 95.0%
Percent of Control Activity (CYP2C8; CYP 2C8, 0.398 µM, Zero-Minute Preincubation, 0.398 µM): 94.0% and 94.9%
Percent of Control Activity (CYP2C8; CYP 2C8, 1 µM, 30-Minute Preincubation, 1 µM): 96.0% and 95.0%
Percent of Control Activity (CYP2C8; CYP 2C8, 1 µM, Zero-Minute Preincubation, 1 µM): 93.7%
Percent of Control Activity (CYP2C8; CYP 2C8, 15.8 µM, 30-Minute Preincubation, 15.8 µM): 96.2% and 94.8%
Percent of Control Activity (CYP2C8; CYP 2C8, 15.8 µM, Zero-Minute Preincubation, 15.8 µM): 94.0% and 95.0%
Percent of Control Activity (CYP2C8; CYP 2C8, 39.8 µM, 30-Minute Preincubation, 39.8 µM): 94.8% and 91.6%
Percent of Control Activity (CYP2C8; CYP 2C8, 39.8 µM, Zero-Minute Preincubation, 39.8 µM): 94.6%
Percent of Control Activity (CYP2C8; CYP 2C8, 100 µM, 30-Minute Preincubation, 100 µM): 96.4%
Percent of Control Activity (CYP2C8; CYP 2C8, 100 µM, Zero-Minute Preincubation, 100 µM): 88.3%
activity at 0.01 µM (CYP2C8; CYP 2C8, 0.01 µM, 30-Minute Preincubation): 94.3%
activity at 0.01 µM (CYP2C8; CYP 2C8, 0.01 µM, Zero-Minute Preincubation): 95.1%
activity at 0.158 µM (CYP2C8; CYP 2C8, 0.158 µM, 30-Minute Preincubation): 90.5%
activity at 0.158 µM (CYP2C8; CYP 2C8, 0.158 µM, Zero-Minute Preincubation): 91.3%
activity at 0.398 µM (CYP2C8; CYP 2C8, 0.398 µM, 30-Minute Preincubation): 92.1%
activity at 0.398 µM (CYP2C8; CYP 2C8, 0.398 µM, Zero-Minute Preincubation): 95.4%
activity at 1 µM (CYP2C8; CYP 2C8, 1 µM, 30-Minute Preincubation): 91.8%
activity at 1 µM (CYP2C8; CYP 2C8, 1 µM, Zero-Minute Preincubation): 92.1%
activity at 15.8 µM (CYP2C8; CYP 2C8, 15.8 µM, 30-Minute Preincubation): 88.9%
activity at 15.8 µM (CYP2C8; CYP 2C8, 15.8 µM, Zero-Minute Preincubation): 89.3%
activity at 39.8 µM (CYP2C8; CYP 2C8, 39.8 µM, 30-Minute Preincubation): 88.9%
activity at 39.8 µM (CYP2C8; CYP 2C8, 39.8 µM, Zero-Minute Preincubation): 87%
activity at 100 µM (CYP2C8; CYP 2C8, 100 µM, 30-Minute Preincubation): 89.5%
activity at 100 µM (CYP2C8; CYP 2C8, 100 µM, Zero-Minute Preincubation): 85.6%
